Structures can show the parent of a compound that is named as a salt.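 96-well plates; 48 h exposure; 5 concentrations. Endpoints by linear interpolation between flanking doses. Not reached: highest tested concentration assigned. Here, GI50 denotes the concentration required for 50% inhibition of growth.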 Active and inactive are the calls of the source. Cut-off read from the data, not from the text of the source: active = GI50 up to about 1.1 µM and inactive = higher.
Key:
Assay in all cases: growth of human tumour cells (NCI), 48 h
[1] = tested on: MDA-MB-435
[2] = tested on: TK-10
[3] = tested on: OVCAR-8
[4] = tested on: EKVX
[5] = tested on: HCC 2998
[6] = tested on: MOLT-4
[7] = tested on: IGROV-1
[8] = tested on: HCT-116
[9] = tested on: UO-31
[10] = tested on: M14
[11] = tested on: NCI-H460
[12] = tested on: HCT-15
[13] = tested on: A498
[14] = tested on: SF-295
[15] = tested on: SK-MEL-2
[16] = tested on: SNB-19
[17] = tested on: RXF 393
[18] = tested on: RPMI-8226
[19] = tested on: T47D
[20] = tested on: Hs-578T

Row | SMILES | GI50 [1] | GI50 [2] | GI50 [3] | GI50 [4] | GI50 [5] | GI50 [6] | GI50 [7] | GI50 [8] | GI50 [9] | GI50 [10] | GI50 [11] | GI50 [12] | GI50 [13] | GI50 [14] | GI50 [15] | GI50 [16] | GI50 [17] | GI50 [18] | GI50 [19] | GI50 [20]
1 | CCOC(=O)C12OC(OCC)(CC1(OCC)OCC)C1(CC1)C2=O (configuration not stated) | > 100 µM (inactive) | > 100 µM (inactive) | > 100 µM (inactive) | > 100 µM (inactive) | > 100 µM (inactive) | > 100 µM (inactive) | > 100 µM (inactive) | > 100 µM (inactive) | > 100 µM (inactive) | > 100 µM (inactive) | > 100 µM (inactive) | > 100 µM | > 100 µM (inactive) | > 100 µM (inactive) | > 100 µM (inactive) | > 100 µM (inactive) | – | – | – | –
2 | O=C(O)c1ccc(NC(=O)C2C(=O)C(=O)N(c3ccc(C(=O)O)cc3)C2=O)cc1 (configuration not stated) | – | > 100 µM (inactive) | > 100 µM (inactive) | > 100 µM (inactive) | > 100 µM (inactive) | > 100 µM (inactive) | > 100 µM (inactive) | > 100 µM (inactive) | > 100 µM (inactive) | – | > 100 µM (inactive) | > 100 µM | > 100 µM (inactive) | > 100 µM (inactive) | > 100 µM (inactive) | > 100 µM (inactive) | > 100 µM (inactive) | > 100 µM (inactive) | – | –
3 | CC1=NN(C(=O)c2ccc(Cl)cc2)C(=O)/C1=C/c1ccccc1O | – | > 100 µM (inactive) | > 100 µM (inactive) | > 100 µM (inactive) | > 100 µM (inactive) | > 100 µM (inactive) | > 100 µM (inactive) | > 100 µM (inactive) | > 100 µM (inactive) | > 100 µM (inactive) | > 100 µM (inactive) | > 100 µM | > 100 µM (inactive) | > 100 µM (inactive) | > 100 µM (inactive) | > 100 µM (inactive) | > 100 µM (inactive) | > 100 µM (inactive) | – | –
4 | CN1C(=O)CNS1(=O)=O | – | > 100 µM (inactive) | > 100 µM (inactive) | – | > 100 µM (inactive) | > 100 µM (inactive) | > 100 µM (inactive) | > 100 µM (inactive) | > 100 µM (inactive) | > 100 µM (inactive) | > 100 µM (inactive) | > 100 µM | > 100 µM (inactive) | > 100 µM (inactive) | > 100 µM (inactive) | > 100 µM (inactive) | > 100 µM (inactive) | > 100 µM (inactive) | – | –
5 | COc1ccc2cc(Oc3ccc(Cl)cc3)c(=O)oc2c1 | – | > 100 µM (inactive) | > 100 µM (inactive) | > 100 µM (inactive) | > 10 µM (inactive) | > 100 µM (inactive) | > 100 µM (inactive) | > 100 µM (inactive) | > 100 µM (inactive) | > 100 µM (inactive) | > 100 µM (inactive) | > 100 µM | 93.5 µM (inactive) | 60.5 µM (inactive) | – | > 100 µM (inactive) | > 100 µM (inactive) | > 100 µM (inactive) | > 100 µM (inactive) | > 100 µM (inactive)
6 | CC1CCCC(CC(=O)O)(CC(=O)O)C1 (configuration not stated) | > 100 µM (inactive) | > 100 µM (inactive) | > 100 µM (inactive) | > 100 µM (inactive) | > 100 µM (inactive) | 48.1 µM (inactive) | > 100 µM (inactive) | > 100 µM (inactive) | > 100 µM (inactive) | > 100 µM (inactive) | > 100 µM (inactive) | > 100 µM | > 100 µM (inactive) | – | > 100 µM (inactive) | > 100 µM (inactive) | – | > 100 µM (inactive) | – | > 100 µM (inactive)
7 | CCN(CC)c1ccc2cc(C(=O)Nc3ccccc3OC)c(=N)oc2c1 | 34.2 µM (inactive) | – | 3.61 µM (inactive) | 32.8 µM (inactive) | 21.8 µM (inactive) | 3.24 µM (inactive) | 7.55 µM (inactive) | 15.4 µM (inactive) | 0.321 µM (active) | 35.2 µM (inactive) | 5.16 µM (inactive) | 19.7 µM | 31.3 µM (inactive) | 33.9 µM (inactive) | 59.7 µM (inactive) | 16.1 µM (inactive) | – | 15.9 µM (inactive) | – | 22.1 µM (inactive)
8 | CCOC(=O)c1cn(C)c(=S)n2c1nc1ccccc12 | > 100 µM (inactive) | – | 30.8 µM (inactive) | > 100 µM (inactive) | > 100 µM (inactive) | 95.7 µM (inactive) | 34.3 µM (inactive) | 54.3 µM (inactive) | 4.73 µM (inactive) | > 100 µM (inactive) | 45.6 µM (inactive) | 91 µM | 22.3 µM (inactive) | 59.4 µM (inactive) | 40.2 µM (inactive) | 83.8 µM (inactive) | > 100 µM (inactive) | 30.9 µM (inactive) | > 100 µM (inactive) | –
9 | O=C(CC(=O)C1CCOC1=O)C(=O)Nc1cccc(Cl)c1 (configuration not stated) | – | > 100 µM (inactive) | > 100 µM (inactive) | > 100 µM (inactive) | > 100 µM (inactive) | > 100 µM (inactive) | > 100 µM (inactive) | > 100 µM (inactive) | > 100 µM (inactive) | > 100 µM (inactive) | > 100 µM (inactive) | > 100 µM | > 100 µM (inactive) | > 100 µM (inactive) | > 100 µM (inactive) | > 100 µM (inactive) | > 100 µM (inactive) | > 100 µM (inactive) | – | –
10 | COc1ccc2nc3cc(Cl)ccc3c(Sc3ccc(NC(C)=O)cc3)c2c1 | – | > 36.2 µM (inactive) | 8.28 µM (inactive) | – | 2.74 µM (inactive) | 6.87 µM (inactive) | > 32.4 µM (inactive) | 17.9 µM (inactive) | – | 11.6 µM (inactive) | > 26.3 µM (inactive) | – | > 41.7 µM (inactive) | > 25.9 µM (inactive) | 12.3 µM (inactive) | – | 12.6 µM (inactive) | 26.3 µM (inactive) | – | –
11 | O=C(CCO)OCCCCCC/C=C\CCCCCC/C=C\CCCCCCCCOC(=O)CCO | 21.2 µM (inactive) | 17.7 µM (inactive) | 18.5 µM (inactive) | 18.3 µM (inactive) | 16.5 µM (inactive) | 14.6 µM (inactive) | 17.2 µM (inactive) | 16.3 µM (inactive) | 18.6 µM (inactive) | 17.1 µM (inactive) | 17.3 µM (inactive) | 15.6 µM | 23.3 µM (inactive) | 18.3 µM (inactive) | 17.3 µM (inactive) | 18.9 µM (inactive) | 18.9 µM (inactive) | – | 17.1 µM (inactive) | –
12 | c1ccc([C@H]2CN3CCSC3=N2)cc1 [LEVAMISOLE HYDROCHLORIDE] | > 100 µM (inactive) | – | > 100 µM (inactive) | > 100 µM (inactive) | > 100 µM (inactive) | > 100 µM (inactive) | > 100 µM (inactive) | > 100 µM (inactive) | > 100 µM (inactive) | > 100 µM (inactive) | > 100 µM (inactive) | > 100 µM | > 100 µM (inactive) | > 100 µM (inactive) | > 100 µM (inactive) | > 100 µM (inactive) | > 100 µM (inactive) | – | > 100 µM (inactive) | –
13 | COC(=O)C(C(=O)C(N)=O)c1csc(-n2nc(-c3ccccc3)cc2-c2ccccc2)n1 (configuration not stated) | – | 21.5 µM (inactive) | 30.4 µM (inactive) | 13.9 µM (inactive) | > 31.6 µM (inactive) | 25.5 µM (inactive) | 17.3 µM (inactive) | > 31.6 µM (inactive) | 13.5 µM (inactive) | > 31.6 µM (inactive) | > 31.6 µM (inactive) | > 31.6 µM | > 31.6 µM (inactive) | > 87.9 µM (inactive) | > 31.6 µM (inactive) | 12.5 µM (inactive) | > 31.6 µM (inactive) | > 31.6 µM (inactive) | – | –
14 | Cc1cc(-c2c(Br)cc(C(=O)O)n2C)on1 | > 100 µM (inactive) | > 100 µM (inactive) | > 100 µM (inactive) | > 100 µM (inactive) | – | > 100 µM (inactive) | – | > 100 µM (inactive) | > 100 µM (inactive) | > 100 µM (inactive) | > 100 µM (inactive) | > 100 µM | > 100 µM (inactive) | > 100 µM (inactive) | > 100 µM (inactive) | > 100 µM (inactive) | – | > 100 µM (inactive) | > 100 µM (inactive) | –
15 | Cc1cc(C)[n+](CCOc2ccc(/C(=C(/Cl)c3ccccc3)c3ccccc3)cc2)c(C)c1.[O-][Cl+3]([O-])([O-])[O-] | – | 3.52 µM (inactive) | 1.33 µM (inactive) | 0.887 µM (active) | 0.701 µM (active) | 1.28 µM (inactive) | 0.612 µM (active) | 0.743 µM (active) | 14.8 µM (inactive) | 2 µM (inactive) | 1.25 µM (inactive) | 13.4 µM | 3.87 µM (inactive) | 2.47 µM (inactive) | 0.865 µM (active) | 0.865 µM (active) | 2.49 µM (inactive) | 0.348 µM (active) | – | –
16 | COc1cc(C2=C(C#N)C(N)OC3=C2COc2ccccc23)cc(OC)c1OC (configuration not stated) | 34.3 µM (inactive) | 13.7 µM (inactive) | – | 16.2 µM (inactive) | 14.4 µM (inactive) | 3.16 µM (inactive) | 22.9 µM (inactive) | 16.7 µM (inactive) | 4.15 µM (inactive) | 42 µM (inactive) | 19.4 µM (inactive) | > 100 µM | 24.5 µM (inactive) | – | 28.5 µM (inactive) | 9.29 µM (inactive) | – | 46.6 µM (inactive) | – | –
17 | CCOC(=O)c1ncn2c1[nH]c(=S)c1ccccc12 | – | > 100 µM (inactive) | > 100 µM (inactive) | > 100 µM (inactive) | > 100 µM (inactive) | > 100 µM (inactive) | > 100 µM (inactive) | > 100 µM (inactive) | > 100 µM (inactive) | > 100 µM (inactive) | > 100 µM (inactive) | > 100 µM | > 100 µM (inactive) | > 100 µM (inactive) | > 100 µM (inactive) | > 100 µM (inactive) | > 100 µM (inactive) | 31.3 µM (inactive) | – | –

Reference: ChEMBL document CHEMBL1201862, “PubChem BioAssay data set” (2004)
